Experimental data published in PubChem BioAssay AID212 (DTP/NCI, 2004).
Several values for one entry are separate records, joined by “and”; a condition that tells them apart may be missing. Equal values may be shown once. Inconclusive results are not listed.

Tested on: BDF1 mice, colon carcinoma 38 sc, T/C %
Experiment: NCI In Vivo Anticancer Drug Screen. Data for tumor model Colon Carcinoma 38 (subcutaneous) in B6D2F1 (BDF1) mice
Details: endpoint: median tumor weight (est.), higher = larger tumour
Method in brief: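 Transplantable tumor in mice; compound-treated vs vehicle-dosed controls. Measured survival or tumor size; value = T ÷ C.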

[1] = dose: 25.0 mg/kg/injection, schedule: Q07DX003 (ip), vehicle: saline with Tween-80
[2] = dose: 50.0 mg/kg/injection, schedule: Q07DX003 (ip), vehicle: saline with Tween-80
[3] = dose: 12.5 mg/kg/injection, schedule: Q07DX002 (ip), vehicle: saline with Tween-80
[4] = dose: 25.0 mg/kg/injection, schedule: Q07DX002 (ip), vehicle: saline with Tween-80
[5] = dose: 50.0 mg/kg/injection, schedule: Q07DX002 (ip), vehicle: saline with Tween-80

## Clc1ccc(C(c2ccccc2Cl)C(Cl)Cl)cc1 (stereo not given)
[1]
  T/C: 39 % of control
[2]
  T/C: 59 % of control
dose: 100.0 mg/kg/injection, schedule: Q07DX003 (ip), vehicle: saline with Tween-80
  T/C: 80 % of control
dose: 200.0 mg/kg/injection, schedule: Q07DX003 (ip), vehicle: saline with Tween-80
  T/C: 63 % of control
dose: 400.0 mg/kg/injection, schedule: Q07DX003 (ip), vehicle: saline with Tween-80
  T/C: 95 % of control

## COCCCNC1=C(C#N)C(=O)NC(c2cccc([N+](=O)[O-])c2)S1 (stereo not given)
[3]
  T/C: 97 % of control
[4]
  T/C: 95 % of control
[5]
  T/C: 108 % of control

## O=c1[nH]cccc1O
dose: 32.0 mg/kg/injection, schedule: Q07DX002 (ip), vehicle: saline with Tween-80
  T/C: 101 % of control
dose: 62.0 mg/kg/injection, schedule: Q07DX002 (ip), vehicle: saline with Tween-80
  T/C: 177 % of control
dose: 62.5 mg/kg/injection, schedule: Q07DX002 (ip), vehicle: saline with Tween-80
  T/C: 100 % of control
dose: 64.0 mg/kg/injection, schedule: Q07DX002 (ip), vehicle: saline with Tween-80
  T/C: 76 % of control
dose: 125.0 mg/kg/injection, schedule: Q07DX002 (ip), vehicle: saline with Tween-80
  T/C: 87 % of control
dose: 128.0 mg/kg/injection, schedule: Q07DX002 (ip), vehicle: saline with Tween-80
  T/C: 94 % of control
dose: 250.0 mg/kg/injection, schedule: Q07DX002 (ip), vehicle: saline with Tween-80
  T/C: 87 % of control
dose: 256.0 mg/kg/injection, schedule: Q07DX002 (ip), vehicle: saline with Tween-80
  T/C: 58 % of control
dose: 512.0 mg/kg/injection, schedule: Q07DX002 (ip), vehicle: saline with Tween-80
  T/C: 20 % of control

## O=[n+]1c2ccccc2n([O-])c2ccccc21.[Cl][Ni][Cl]
dose: 3.12 mg/kg/injection, schedule: Q07DX002 (ip), vehicle: saline with Tween-80
  T/C: 89 % of control
dose: 6.25 mg/kg/injection, schedule: Q07DX002 (ip), vehicle: saline with Tween-80
  T/C: 111 % of control
[3]
  T/C: 89 % of control
[4]
  T/C: 97 % of control

## O=NN(CCCl)C(=O)NCCO
dose: 3.12 mg/kg/injection, schedule: Q07DX002 (ip), vehicle: water
  T/C: 75 % of control
dose: 12.5 mg/kg/injection, schedule: Q07DX002 (ip), vehicle: water
  T/C: 18 % of control and 34 % of control
dose: 25.0 mg/kg/injection, schedule: Q07DX002 (ip), vehicle: water
  T/C: 14 % of control

## OCC1OC(n2cnc3c(=S)nc[nH]c32)C(O)C1O (stereo not given)
[3]
  T/C: 61 % of control
dose: 12.5 mg/kg/injection, schedule: Q07DX002 (ip), vehicle: saline
  T/C: 90 % of control
[4]
  T/C: 97 % of control and 118 % of control
dose: 25.0 mg/kg/injection, schedule: Q07DX002 (ip), vehicle: saline
  T/C: 101 % of control
[5]
  T/C: 77 % of control and 83 % of control and 80 % of control
dose: 50.0 mg/kg/injection, schedule: Q07DX002 (ip), vehicle: saline
  T/C: 14 % of control
dose: 100.0 mg/kg/injection, schedule: Q07DX002 (ip), vehicle: saline
  T/C: 17 % of control
dose: 200.0 mg/kg/injection, schedule: Q07DX002 (ip), vehicle: saline
  T/C: 46 % of control
dose: 400.0 mg/kg/injection, schedule: Q07DX002 (ip), vehicle: saline
  T/C: 22 % of control
dose: 800.0 mg/kg/injection, schedule: Q07DX002 (ip), vehicle: saline with Tween-80
  T/C: 33 % of control and 34 % of control and 57 % of control
dose: 1600.0 mg/kg/injection, schedule: Q07DX002 (ip), vehicle: saline with Tween-80
  T/C: 28 % of control

## CCC[P+](c1ccccc1)(c1ccccc1)c1ccccc1
dose: 3.12 mg/kg/injection, schedule: Q07DX003 (ip), vehicle: saline with Tween-80
  T/C: 114 % of control and 98 % of control
dose: 6.25 mg/kg/injection, schedule: Q07DX003 (ip), vehicle: saline with Tween-80
  T/C: 96 % of control
[1]
  T/C: 76 % of control
[2]
  T/C: 73 % of control

## O=C(Nc1ccccc1)c1c(O)[nH]c(=S)[nH]c1=O
dose: 112.0 mg/kg/injection, schedule: Q07DX002 (ip), vehicle: saline with Tween-80
  T/C: 68 % of control
dose: 225.0 mg/kg/injection, schedule: Q07DX002 (ip), vehicle: saline with Tween-80
  T/C: 51 % of control

## Cc1ccc2c(c1)N=C(Nc1ccccc1)N=S2(C)=O (stereo not given)
[3]
  T/C: 76 % of control
[4]
  T/C: 85 % of control
[5]
  T/C: 82 % of control
dose: 200.0 mg/kg/injection, schedule: Q07DX002 (ip), vehicle: saline with Tween-80
  T/C: 105 % of control
